Experimental data as given in PubChem BioAssay (NCI).
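96-well plates; 48 h exposure; 5 concentrations. Endpoints by linear interpolation between flanking doses. Not reached: highest tested concentration assigned. Here, GI50 denotes the concentration required for 50% inhibition of growth. Definition used: TGI = concentration required for complete inhibition of growth.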

How the values were obtained:
Test in all cases: growth of human tumour cells (NCI), 48 h
786-0 renal = test system: 786-0 renal
A498 renal = test system: A498 renal
A549 NSCLC = test system: A549 NSCLC
ACHN renal = test system: ACHN renal
BT-549 breast = test system: BT-549 breast
CAKI-1 renal = test system: CAKI-1 renal
CCRF-CEM leukemia = test system: CCRF-CEM leukemia
COLO 205 colon = test system: COLO 205 colon
DU-145 prostate = test system: DU-145 prostate
EKVX NSCLC = test system: EKVX NSCLC
HCC-2998 colon = test system: HCC-2998 colon
HCT-116 colon = test system: HCT-116 colon
HCT-15 colon = test system: HCT-15 colon
HL-60(TB) leukemia = test system: HL-60(TB) leukemia
HOP-62 NSCLC = test system: HOP-62 NSCLC
HOP-92 NSCLC = test system: HOP-92 NSCLC
HS 578T breast = test system: HS 578T breast
HT29 colon = test system: HT29 colon
IGROV1 ovarian = test system: IGROV1 ovarian
K-562 leukemia = test system: K-562 leukemia
KM12 colon = test system: KM12 colon
LOX IMVI melanoma = test system: LOX IMVI melanoma
M14 melanoma = test system: M14 melanoma
MALME-3M melanoma = test system: MALME-3M melanoma
MCF7 breast = test system: MCF7 breast
MDA-MB-231 breast = test system: MDA-MB-231 breast
MDA-MB-435 = test system: MDA-MB-435
MOLT-4 leukemia = test system: MOLT-4 leukemia
NCI-H226 lung = test system: NCI-H226 lung
NCI-H23 lung = test system: NCI-H23 lung
NCI-H460 lung = test system: NCI-H460 lung
NCI-H522 lung = test system: NCI-H522 lung
NCI/ADR-RES ovarian = test system: NCI/ADR-RES ovarian
OVCAR-3 ovarian = test system: OVCAR-3 ovarian
OVCAR-4 ovarian = test system: OVCAR-4 ovarian
OVCAR-5 ovarian = test system: OVCAR-5 ovarian
OVCAR-8 ovarian = test system: OVCAR-8 ovarian
PC-3 prostate = test system: PC-3 prostate
RPMI-8226 leukemia = test system: RPMI-8226 leukemia
RXF 393 renal = test system: RXF 393 renal
SF-268 CNS = test system: SF-268 CNS
SF-295 CNS = test system: SF-295 CNS
SF-539 CNS = test system: SF-539 CNS
SK-MEL-2 melanoma = test system: SK-MEL-2 melanoma
SK-MEL-28 melanoma = test system: SK-MEL-28 melanoma
SK-MEL-5 melanoma = test system: SK-MEL-5 melanoma
SK-OV-3 ovarian = test system: SK-OV-3 ovarian
SN12C renal = test system: SN12C renal
SNB-19 CNS = test system: SNB-19 CNS
SNB-75 CNS = test system: SNB-75 CNS
SR leukemia = test system: SR leukemia
SW-620 colon = test system: SW-620 colon
T-47D breast = test system: T-47D breast
TK-10 renal = test system: TK-10 renal
U251 CNS = test system: U251 CNS
UACC-257 melanoma = test system: UACC-257 melanoma
UACC-62 melanoma = test system: UACC-62 melanoma
UO-31 renal = test system: UO-31 renal

Question: What does the source list for `Cn1cnc([N+](=O)[O-])c1S(=O)(=O)Oc1cccc2ccccc12`?
Answer: GI50 (786-0 renal): 14.4 µM; TGI (786-0 renal): 29.3 µM; GI50 (A498 renal): 11.8 µM; TGI (A498 renal): 27.2 µM; GI50 (A549 NSCLC): 17.5 µM; TGI (A549 NSCLC): 52.4 µM; GI50 (ACHN renal): 1.97 µM; TGI (ACHN renal): 4.21 µM; GI50 (BT-549 breast): 14.4 µM; TGI (BT-549 breast): 30.7 µM; GI50 (CAKI-1 renal): 1.76 µM; TGI (CAKI-1 renal): 4.07 µM; GI50 (CCRF-CEM leukemia): 1.32 µM; TGI (CCRF-CEM leukemia): 9.3 µM; GI50 (COLO 205 colon): 1.06 µM; TGI (COLO 205 colon): 2.64 µM; GI50 (DU-145 prostate): 3.14 µM; TGI (DU-145 prostate): 8.03 µM; GI50 (EKVX NSCLC): 13.9 µM; TGI (EKVX NSCLC): 34.8 µM; GI50 (HCC-2998 colon): 13.1 µM; TGI (HCC-2998 colon): 26.6 µM; GI50 (HCT-116 colon): 2.1 µM; TGI (HCT-116 colon): 5.11 µM; GI50 (HCT-15 colon): 1.97 µM; TGI (HCT-15 colon): 4.72 µM; GI50 (HL-60(TB) leukemia): 5.34 µM; TGI (HL-60(TB) leukemia): 31.4 µM; GI50 (HOP-62 NSCLC): 2.56 µM; TGI (HOP-62 NSCLC): 5.45 µM; GI50 (HOP-92 NSCLC): 2.6 µM; TGI (HOP-92 NSCLC): 11.5 µM; GI50 (HS 578T breast): 26.5 µM; TGI (HS 578T breast): > 100 µM; GI50 (HT29 colon): 1.8 µM; TGI (HT29 colon): 3.99 µM; GI50 (IGROV1 ovarian): 2.14 µM; TGI (IGROV1 ovarian): 5.09 µM; GI50 (K-562 leukemia): 1.6 µM; TGI (K-562 leukemia): 8.63 µM; GI50 (KM12 colon): 10.4 µM; TGI (KM12 colon): 31.4 µM; GI50 (LOX IMVI melanoma): 2.04 µM; TGI (LOX IMVI melanoma): 5.73 µM; GI50 (M14 melanoma): 3.17 µM; TGI (M14 melanoma): 10.2 µM; GI50 (MALME-3M melanoma): 1.83 µM; TGI (MALME-3M melanoma): 4.98 µM; GI50 (MCF7 breast): 3.56 µM; TGI (MCF7 breast): 14.5 µM; GI50 (MDA-MB-231 breast): 4.46 µM; TGI (MDA-MB-231 breast): 14 µM; GI50 (MDA-MB-435): 2.31 µM; TGI (MDA-MB-435): 7.21 µM; GI50 (MOLT-4 leukemia): 3.37 µM; TGI (MOLT-4 leukemia): 22.7 µM; GI50 (NCI-H226 lung): 3.79 µM; TGI (NCI-H226 lung): 31 µM; GI50 (NCI-H23 lung): 10 µM; TGI (NCI-H23 lung): 32.1 µM; GI50 (NCI-H460 lung): 14.7 µM; TGI (NCI-H460 lung): 36 µM; GI50 (NCI-H522 lung): 0.271 µM; TGI (NCI-H522 lung): 1.18 µM; GI50 (NCI/ADR-RES ovarian): 7.59 µM; TGI (NCI/ADR-RES ovarian): 33 µM; GI50 (OVCAR-3 ovarian): 1.89 µM; TGI (OVCAR-3 ovarian): 3.96 µM; GI50 (OVCAR-4 ovarian): 2.03 µM; TGI (OVCAR-4 ovarian): 5.96 µM; GI50 (OVCAR-5 ovarian): 7.55 µM; TGI (OVCAR-5 ovarian): 27.8 µM; GI50 (OVCAR-8 ovarian): 4.62 µM; TGI (OVCAR-8 ovarian): 18.7 µM; GI50 (PC-3 prostate): 8.43 µM; TGI (PC-3 prostate): 44.4 µM; GI50 (RPMI-8226 leukemia): 2.68 µM; TGI (RPMI-8226 leukemia): 6.69 µM; GI50 (RXF 393 renal): 2.3 µM; TGI (RXF 393 renal): 4.3 µM; GI50 (SF-268 CNS): 7.06 µM; TGI (SF-268 CNS): 33.4 µM; GI50 (SF-295 CNS): 21.2 µM; TGI (SF-295 CNS): > 65.3 µM; GI50 (SF-539 CNS): 2.23 µM; TGI (SF-539 CNS): 5.59 µM; GI50 (SK-MEL-2 melanoma): 4.42 µM; TGI (SK-MEL-2 melanoma): 20 µM; GI50 (SK-MEL-28 melanoma): 4.68 µM; TGI (SK-MEL-28 melanoma): 14.5 µM; GI50 (SK-MEL-5 melanoma): 13.7 µM; TGI (SK-MEL-5 melanoma): 28.8 µM; GI50 (SK-OV-3 ovarian): 46.9 µM; TGI (SK-OV-3 ovarian): > 100 µM; GI50 (SN12C renal): 5.71 µM; TGI (SN12C renal): 20.5 µM; GI50 (SNB-19 CNS): 29 µM; TGI (SNB-19 CNS): > 100 µM; GI50 (SNB-75 CNS): 9.55 µM; TGI (SNB-75 CNS): 32.3 µM; GI50 (SR leukemia): 1.74 µM; TGI (SR leukemia): 4.57 µM; GI50 (SW-620 colon): 1.36 µM; TGI (SW-620 colon): 2.89 µM; GI50 (T-47D breast): 1.91 µM; TGI (T-47D breast): 4.29 µM; GI50 (TK-10 renal): 1.59 µM; TGI (TK-10 renal): 2.98 µM; GI50 (U251 CNS): 8.89 µM; TGI (U251 CNS): 34.7 µM; GI50 (UACC-257 melanoma): 2.36 µM; TGI (UACC-257 melanoma): 6.29 µM; GI50 (UACC-62 melanoma): 7.12 µM; TGI (UACC-62 melanoma): 20.8 µM; GI50 (UO-31 renal): 1.4 µM; TGI (UO-31 renal): 4.33 µM
